# Data published in US20260060947A1 (INSTITUT PASTEUR DE MONTEVIDEO, priority 2019, published 2026).
# Experiments:
# [1] = test system: NF-κB-p65; experiment: LPS-induced NF-κB-p65 nuclear translocation in SOD1^G93A primary microglia; format: cell-based, rat; details: BANA 10-30 μM before LPS
# Protocol: FIG. 8D: Confocal images show CD11b-positive SOD1^G93A primary microglia (grey) treated with BANA, BA or vehicle, before LPS stimulation. […] Nuclear NF-κB-p65 colocalizing with DAPI nuclear staining is denoted in yellow.
# Nuclear NF-κB-p65 colocalizing with DAPI nuclear staining is denoted in yellow. […] Scale bar=20 μm. […] 2 replicates of 3 independent experiments.
# The effects of BANA on LPS- or TNFα-induced NF-κB activation were also assayed in cell cultures of BV2 microglial cell line and primary adult microglia isolated from symptomatic SOD1^G93A rats, and HT-29 NF-κB reporter cell line, respectively.
# [2] = test system: NF-κB-p65; experiment: LPS-induced NF-κB-p65 nuclear translocation in BV2 cells (immunocytochemistry); format: cell-based, murine; details: BANA 10, 20, 30 μM, BA 30 μM or DMF for 3 hrs before LPS 100 ng/ml
# Protocol: The effect of BANA on nuclear translocation of NF-κB was studied by immunocytochemistry using murine microglia cell line BV2.
# Cells were then treated with BANA (10, 20 and 30 μM) or B.A (30 μM) for 3 hrs. After treatment, cells were stimulated with LPS (100 ng/ml) for 30 minutes. Then, cells were washed and fixed with PFA 4% for 20 minutes at 4° C. and washed with PBS. Immunocytochemistry was performed as follows: cells were permeabilized using 0.5% Triton in PBS for 15 minutes, and then blocked using 5% of BSA for 1 h at room temperature. Rabbit anti-NF-κB-p65 (ab16502, 1/200) and mouse anti-CD11b (BD550219, 1/100) were incubated overnight at 4° C. After that, primary antibodies were removed, washed with PBS 3 times for 10 minutes, and Alexa-fluor-conjugated goat anti-rabbit or goat anti-mouse antibodies (1:1000) were incubated for 2 h at room temperature. After secondary antibodies were removed, cells were covered in glycerol mounting medium with 1/2000 DAPI staining. Cells were analyzed by confocal microscopy using a confocal ZEISS LSM 800. NF-κB-p65+ nuclei were counted and ratio of DAPI to NF-κB-p65 labeling was compared among groups. Data were analyzed using analyzing tools of ImageJ and GraphPad Prism 7 software.
# [3] = test system: NLRP3 inflammasome; experiment: Inflammasome activation in THP-1 cells (LPS and ATP), IL-1β ELISA; format: cell-based, Human; details: 30 μM, in first or second signal (LPS and ATP), compared with vehicle
# Protocol: The effect of BANA or BA over NF-κB-dependent gene expression was studied by qPCR using THP-1 cells. THP-1 cells were differentiated into macrophages and treated with BANA (30 μM) or BA (30 μM) for 2 hs, followed by stimulation with LPS (100 ng/mL, for 3-4 h).
# For inflammasome activation, THP-1 cells were treated with LPS (as above) followed by exposure to ATP (5 mM, 45 min). IL-1β in the supernatant was then measured by ELISA (B&D OptEIA TM, San Diego, CA, USA).
structure (smiles),measurement,setting,value
"O=C(O)c1ccccc1 [benzoic acid, reference compound]",LPS-induced NF-κB-p65 nuclear translocation,[1],devoid of inhibitory effect
same,LPS-induced NF-κB-p65 nuclear translocation,[2],devoid of inhibitory effect
same,release of IL-1β,[3],devoid of anti-inflammatory effects
